From publication PMC6150381, “Design, Synthesis, and Biological Evaluation of N,N-Disubstituted-4-arylthiazole-2-methylamine Derivatives as Cholesteryl Ester Transfer Inhibitors” (Molecules : A Journal of Synthetic Chemistry and Natural …, 2017)
Like-named read-outs stand apart in the source and are kept apart here.

Columns and labels:
[1] = target: T1, recombinant CETP (Homo sapiens, UniProt P11597); set-up: method as in previous work; conditions: in Figure 2; ref previous work; cited from earlier work
T1 construct: purchased Roar, New York, NY, USA RB-RPAK
T1 sequence (P11597 18-493): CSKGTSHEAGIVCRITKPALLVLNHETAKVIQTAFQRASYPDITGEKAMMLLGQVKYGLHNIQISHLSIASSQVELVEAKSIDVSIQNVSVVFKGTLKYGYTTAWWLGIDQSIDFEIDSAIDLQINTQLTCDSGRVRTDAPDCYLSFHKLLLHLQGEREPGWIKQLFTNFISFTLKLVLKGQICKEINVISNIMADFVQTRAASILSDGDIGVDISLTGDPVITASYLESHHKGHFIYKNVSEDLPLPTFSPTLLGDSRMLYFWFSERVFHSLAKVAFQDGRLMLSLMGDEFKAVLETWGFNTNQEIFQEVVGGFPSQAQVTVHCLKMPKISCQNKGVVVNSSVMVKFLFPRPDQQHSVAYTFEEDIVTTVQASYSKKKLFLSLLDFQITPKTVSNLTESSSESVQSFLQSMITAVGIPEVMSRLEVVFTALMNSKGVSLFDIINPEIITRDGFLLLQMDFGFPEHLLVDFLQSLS

[2] = ref [12],[13],[14], cited from earlier work
[3] = In vitro metabolic stability study, human liver microsomes; type: in vitro ADME; conditions: human liver microsome, no co-factor (no NADPH regenerating system)
[4] = as above; type: in vitro ADME; conditions: for Remaining (T = 60 min): human liver microsome, with NADPH regenerating system; for microsomal CLint at 10 µM: human, liver microsomes, read-out: CL (clearance rate)
Experimental: (§1) Ten microliters (10 μL, 100 μM/L) of compounds and 80 μL of liver microsomes were mixed and incubated at 37 °C for 10 min, and then 10 μL of NADPH regenerating system was added. Samples were obtained at 0 min, 5 min, 10 min, 20 min, 30 min and 60 min. respectively, and 300 μL stop solution (cold in 4 °C, including 100 ng/mL tolbutamide and 100 ng/mL labetalol) was added to terminate the reaction. After oscillating for 10 min, the plates were centrifuged (4000 rpm) at room temperature for 20 min, and the supernatants were used for analysis.

[5] = target: T1, recombinant CETP; assay: In vitro CETP inhibitory assay (BODIPY-CE fluorescence assay, CETP RP Activity Assay Kit); type: biochemical; conditions: CETP inhibition, eight-point titration, each concentration tested three times
Experimental: The IC50 was determined from a curve fit of the data with each concentration tested three times.

[6] = In vitro metabolic stability study, rat liver microsomes; type: in vitro ADME; conditions: for Remaining (NCF = 60 min) / Remaining (T = 60 min): rat liver microsome; for Remaining (NCF = 60 min): no co-factor (no NADPH regenerating system); for Remaining (T = 60 min): with NADPH regenerating system; for microsomal CLint at 10 µM: rat, liver microsomes, read-out: CL (clearance rate)
Experimental: as §1

[7] = set-up: method as in PMID 26047975; conditions: phase II clinical trials; ref [18]; cited from earlier work

## O=C(CCN(Cc1ccc(F)cc1)c1cccc(Oc2ccccc2)c1)Nc1ccccc1 [Compound 5]
[1]
  IC50: 24.8 µM

## CCOC(=O)N1c2ccc(C(F)(F)F)cc2[C@@H](N(Cc2cc(C(F)(F)F)cc(C(F)(F)F)c2)C(=O)OC)C[C@H]1CC [torcetrapib]
[2]; human studies, dose-dependent
  increase of HDL-C: greater than 100%
[2]; human studies
  LDL-C decreasing: up to 42%
[2]; torcetrapib/atorvastatin group compared to the atorvastatin group
  increase in deaths: 58%

## COc1ccc(N(Cc2ccc(F)cc2)Cc2nc(-c3ccc([N+](=O)[O-])cc3)cs2)cc1OC [Compound 30, N-(4-Fluorobenzyl)-3,4-dimethoxy-N-((4-(4-nitrophenyl)thiazol-2-yl)methyl)aniline]
[3]
  Remaining (NCF = 60 min): 68.0%
[4]; human and rat liver microsomes
  metabolic stability (in words): weak human/rat liver microsome stability
[4]
  Remaining (T = 60 min): 22.9%
  microsomal CLint at 10 µM: 48.1 µL/min/mg
[5]
  IC50: 0.79 ± 0.02 µM
other
  melting point: 111 to 112.8 °C
[6]
  Remaining (NCF = 60 min): 90.5%
  Remaining (T = 60 min): 3.2%
  microsomal CLint at 10 µM: 122 µL/min/mg

## CCOC(=O)N1c2ccc(C(F)(F)F)cc2[C@@H](N(Cc2cc(C(F)(F)F)cc(C(F)(F)F)c2)c2ncc(OCCCC(=O)O)cn2)C[C@H]1CC [AMG-899]
[7]
  increased HDL-C levels: 179.1%
  reduced LDL-C levels: 45.3%

## COc1ccc(N(Cc2ccc(F)cc2)Cc2nc(-c3ccc(C(F)(F)F)cc3)cs2)cc1OC [Compound 32, N-(4-Fluorobenzyl)-3,4-dimethoxy-N-((4-(4-(trifluoromethyl)phenyl)thiazol-2-yl)methyl)aniline]
[3]
  Remaining (NCF = 60 min): 69.1%
[4]
  Remaining (T = 60 min): 39.3%
  microsomal CLint at 10 µM: 29.8 µL/min/mg
[5]
  IC50: 0.97 ± 0.01 µM
other
  melting point: 88.7 to 89.5 °C
[6]
  Remaining (NCF = 60 min): 101.3%
  Remaining (T = 60 min): 10.1%
  microsomal CLint at 10 µM: 79.3 µL/min/mg

## O=[N+]([O-])c1ccc(-c2csc(CN(Cc3ccc(F)cc3)c3cccc(-c4ccccc4)c3)n2)cc1 [Compound 26, N-(4-Fluorobenzyl)-N-((4-(4-nitrophenyl)thiazol-2-yl)methyl)-[1,1′-biphenyl]-3-amine]
[5]
  IC50: 8.98 ± 0.05 µM
other
  melting point: 149.5 to 150.8 °C

## COc1ccc(N(Cc2ccc(F)cc2)Cc2nc(-c3ccc(-c4c(C)noc4C)cc3)cs2)cc1OC [Compound 38, N-((4-(4-(3,5-Dimethylisoxazol-4-yl)phenyl)thiazol-2-yl)methyl)-N-(4-fluorobenzyl)-3,4-dimethoxyaniline]
[5]
  IC50: 7.57 ± 0.1 µM
other
  melting point: 69 to 69.8 °C
